Patent US6949516B2, “Dipeptide apoptosis inhibitors and the use thereof” (Cytovia, Inc., priority 1997, dated 2005)
Where a SMILES comes first, the peptide text is derived from it. The star is where a group is joined. Cbz = O=C(OCc1ccccc1)*; CH2F = FC*

Experiments:
HeLa cells [1] = assay: Effect of Z-VD-fmk on TNF-α-induced cell death in HeLa cells (calcein AM, Example 25); type: cell-based; settings: below 50 μM (data not shown)
Procedure: Tumor necrosis factor alpha (TNF-α) can trigger apoptosis in a number of cell types by initiating the caspase cascade and its apoptosis inducing activity can be inhibited by peptide-based caspase inhibitors. However, high concentrations of the inhibitors (50 μM or greater) is required to have good anti-apoptotic effect. HeLa cells, a cell line commonly employed in TNF-α cell death studies, was used here to determine the anti-apoptotic potency of Z-VD-fmk.
HeLa cells were seeded in 48-well multidishes at a density of 50,000 cells per well 24 hours before treatment. They were then pre-incubated with varying concentrations of Z-VD-fmk for 2 hours and challenged with TNF-α (25 ng/mL) and cycloheximide (CHX; 30 μg/mL). The cultures were incubated for an additional 24 hours and dead cells were removed by two washes with PBS. The density of surviving cells was then measured by incubating each culture for 45 minutes with calcein AM, a profluorescent dye which is taken up by living cells and converted to a fluorescent product. The resulting data were expressed as % control values (control values were cells incubated with cycloheximide but without TNF-α).
Z-VD-fmk provided good cytoprotection at concentrations approaching 100 nM.

HeLa cells [2] = assay: Cell death assay with HeLa cells, qualitative (phase contrast microscopy), TNF-α/CHX challenge; type: cell-based; settings: 24 hour incubation
Procedure: (§1) The cytoprotective properties of Cbz-Val-Asp(OMe)CH2F were tested using HeLa cells challenged with tumor necrosis factor-alpha (TNF-α) and cycloheximide (CHX). This is a well-characterized cell culture model of apoptosis which is commonly used to analyze anti-apoptotic agents. Two types of experiments were performed: a qualitative assessment of cell death by visualization of the cells using phase contrast microscopy; and a quantitative assessment of cell death using the fluorescent dye calcein AM.
For photomicroscopy, HeLa cells are seeded in 12-well multidishes at a density of 100,000 cells per well in Minimal Essential Medium containing 2 mM glutamine and 10% fetal bovine serum. 24 hours later the plating medium is removed and fresh medium is added containing the cytoprotective test compound at various concentrations. The cells are pre-incubated with test compound for 2 hours at 37° C. in a CO2 incubator and then TNF-α and CHX are added at final concentrations of 25 ng/mL and 30 μg/mL, respectively. After a 24 hour incubation period, the cells are examined visually for evidence of cell death based on cell shape and degree of adherence. Cells are considered dead if they have become rounded up and phase bright and have detached from the substratum. Cells are considered alive if they have retained their normal morphology and remain attached to the substratum.
All of these compounds are the methyl ester derivatives. […] At 50 μM, the related peptides BOC-Asp(OMe)-CH2F (FIG. 1C) and Cbz-Glu(OMe)-Val-Asp(OMe)-CH2F (FIG. 1E) are also protective.

HeLa cells [3] = assay: Cell death assay with HeLa cells, quantitative (calcein AM), TNF-α/CHX challenge; type: cell-based
Procedure: as §1
For quantitative assays, the degree of cell survival in the presence of test compounds is analyzed quantitatively using the indicator dye calcein AM. This dye is taken up and converted to a fluorescent derivative by living cells; the amount of activated dye in each well can then be assayed in a fluorometric plate reader and the degree of fluorescence is used as a measure of the number of surviving cells. For these assays, HeLa cells are seeded in 48-well plates at a density of 25,000 cells per well in 0.4 mL of Minimal Essential Medium containing 2 mM glutamine and 10% fetal bovine serum. 24 hours later the plating medium is removed and 0.5 mL of fresh medium containing test compound at various concentrations is added. The cells are pre-incubated with test compound for 2 hours at 37° C. in a CO2 incubator and then TNF-α and CHX are added at final concentrations of 25 ng/mL and 30 μg/mL, respectively. After a 24 hour incubation period, the cultures are washed twice with serum-free, phenol red-free Ham's F12 to remove dead cells and 125 μL of Ham's F12 containing 8 μM calcein AM is added. […] The data are expressed as “Percent Control,” which is calculated by the following equation: Percent Control=(Calcein AM Signal in the Presence of Test Compound+TNF-α and CHX/(Calcein AM Signal in the Presence of CHX Only)×100% The use of CHX-treated cultures as controls, rather than untreated cultures, allows one to correct for the cytostatic effects of CHX. However, because CHX by itself is also a mild inducer of apoptosis in HeLa cells, strong anti-apoptotic drugs will give a Percent Control value greater than 100%.
Quantitative experiments using calcein AM, as described above, corroborate the results obtained by microscopic examination. FIGS. 4 and 5 illustrate the results of two such experiments where the cytoprotective properties of Cbz-Val-Asp(OMe)-CH2F (a) were compared to BOC-Asp(OMe)-CH2F (b) (FIG. 5) and Cbz-Asp(OMe)-Glu(OMe)-Val-Asp(OMe)-CH2F (SEQ ID NO:1) (c) (FIG. 4) at three concentrations (0.5, 5 and 50 μM). […] By contrast, Cbz-Val-Asp(OMe)-CH2F (a) is as effective a cytoprotectant at 0.5 μM as Cbz-Asp(OMe)-Glu(OMe)-Val-Asp(OMe)-CH2F (SEQ ID NO:1) […] is at 50 μM (FIG. 4).
In order to determine the effect of Cbz-Val-Asp(OMe)-CH2F at low doses, HeLa cells were treated with a range of concentrations from 0.05 μM to 1 μM.

[4] = system: PARP cleavage in Jurkat cells; assay: Inhibition of PARP cleavage in antiFas-treated Jurkat cells (Example 22, Western blot); type: cell-based, human; settings: antiFas-treated Jurkat cells
Excerpt: The cleavage of the enzyme poly(ADP)ribose polymerase (PARP) appears to occur in all cells in which the caspase proteolytic cascade is activated. For this reason, PARP cleavage is widely used as a biochemical marker for caspase-mediated apoptosis. The ability of a cytoprotective drug to block PARP cleavage is considered to be an indication of the drug's ability to inhibit the caspase proteolytic cascade and, in particular, CPP32 (caspase-3), the main PARP protease. The ability of Cbz-Val-Asp(OMe)-CH2F to inhibit PARP cleavage was examined during Fas-mediated apoptosis of Jurkat cells, a human T-cell line. This cell culture model of apoptosis is well-characterized and is known to involve activation of at least two caspases, caspase-3 (CPP32) and caspase-8 (FLICE/MACH).
For PARP cleavage assays, Jurkat cells were seeded at a density of 500,000 cells per well in six-well multidishes in RPMI 1640 medium containing 10% FBS. The cells were pre-incubated with Cbz-Val-Asp(OMe)-CH2F or other test compounds for 2 hours at 37° C. in a CO2 incubator and then a monoclonal antibody to Fas was added at a final concentration of 500 ng/mL. Incubation at 37° C. in a CO2 incubator was continued for an additional 4 hours. […] An amount of lysate corresponding to 10 to 20 μg of protein was loaded on a 7.5% SDS polyacrylamide gel and electrophoresed for 2 to 2.5 hrs at 25 mA. The protein was then transferred to a PVDF membrane, probed with a rabbit polyclonal antibody to PARP, and visualized using chemiluminescence.
Jurkat cells were pre-incubated with 0.5, 5, or 50 μM of the following compounds: Cbz-Val-Asp(OMe)-CH2F (compound 1); BOC-Asp(OMe)-CH2F (compound 5); Cbz-Asp-α-([2,6-dichlorobenzoyloxy]-methyl ketone) (compound 6), Cbz-Glu(OMe)-Val-Asp(OMe)-CH2F (compound 3), Cbz-Asp(OMe)-Glu(OMe)-Val-Asp(OMe)-CH2F (SEQ ID NO:1) (compound 2), Cbz-Ile-Glu(OMe)-Thr-Asp(OMe)-CH2F (SEQ ID NO:2) (compound 4), or Cbz-Val-Ala-Asp(OMe)-CH2F (compound 7). The cells were then treated with antiFas and processed for Western Blotting.

Caspase-3 = molecular target: T1, Caspase-3 (Homo sapiens, UniProt P42574); assay: Caspase-3 activity of the dipeptide inhibitors (Table III); type: biochemical
T1 sequence (P42574 29-175 limits assumed): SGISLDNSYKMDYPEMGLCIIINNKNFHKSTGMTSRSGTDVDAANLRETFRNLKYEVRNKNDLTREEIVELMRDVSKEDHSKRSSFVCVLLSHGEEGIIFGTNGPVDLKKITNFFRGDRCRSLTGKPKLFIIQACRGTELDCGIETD

| IC50 (Caspase-3) | Compound | inhibition of PARP cleavage ([4]; 0.5 μM) | inhibition of PARP cleavage ([4]; 5 μM) | inhibition of PARP cleavage ([4]; 50 μM) | also measured |
| --- | --- | --- | --- | --- | --- |
|  | CC(=O)N[C@@H](CC(=O)O)C(=O)N[C@@H](CCC(=O)O)C(=O)N[C@H](C(=O)N[C@H](C=O)CC(=O)O)C(C)C [Ac-DEVD-CHO] |  |  |  | cytoprotection against TNF-α-induced cell death (HeLa cells [1]): very ineffective |
|  | COC(=O)CC(NC(=O)OC(C)(C)C)C(=O)CF (stereo not drawn) [BOC-Asp(OMe)-CH2F] | only marginally effective | effective inhibitors | effective inhibitors | cytoprotection of HeLa cells from apoptotic effects of TNF-α and CHX (microscopy) (HeLa cells [2]; 5 μM): less effective; cytoprotection of HeLa cells from apoptotic effects of TNF-α and CHX (microscopy) (HeLa cells [2]; 50 μM): protective; protection of HeLa cells from TNF-α/CHX (calcein AM) (HeLa cells [3]; 0.5 μM): inactive; protection of HeLa cells from TNF-α/CHX (calcein AM) (HeLa cells [3]; 5 μM): effective cytoprotectant; protection of HeLa cells from TNF-α/CHX (calcein AM) (HeLa cells [3]; 50 μM): effective cytoprotectant |
|  | COC(=O)CC[C@H](NC(=O)[C@H](CC(=O)OC)NC(=O)OCc1ccccc1)C(=O)N[C@H](C(=O)N[C@@H](CC(=O)OC)C(=O)CF)C(C)C [Cbz-Asp(OMe)-Glu(OMe)-Val-Asp(OMe)-CH2F] | only marginally effective | only marginally effective | inhibited PARP cleavage completely | cytoprotection of HeLa cells from apoptotic effects of TNF-α and CHX (microscopy) (HeLa cells [2]; 5 μM): no cytoprotective properties; cytoprotection of HeLa cells from apoptotic effects of TNF-α and CHX (microscopy) (HeLa cells [2]; 50 μM): only marginally effective; protection of HeLa cells from TNF-α/CHX (calcein AM) (HeLa cells [3]; 50 μM): only minimally effective |
|  | O=C(O)CC(NC(=O)OCc1ccccc1)C(=O)COC(=O)c1c(Cl)cccc1Cl (stereo not drawn) [Cbz-Asp-DCB, Cbz-Asp-α-([2,6-dichlorobenzoyloxy]methylketone)] | only marginally effective | only marginally effective | inhibited PARP cleavage completely |  |
|  | COC(=O)CC[C@H](NC(=O)OCc1ccccc1)C(=O)N[C@H](C(=O)N[C@@H](CC(=O)OC)C(=O)CF)C(C)C [Cbz-Glu(OMe)-Val-Asp(OMe)-CH2F] | only marginally effective | effective inhibitors | effective inhibitors | cytoprotection of HeLa cells from apoptotic effects of TNF-α and CHX (microscopy) (HeLa cells [2]; 5 μM): less effective; cytoprotection of HeLa cells from apoptotic effects of TNF-α and CHX (microscopy) (HeLa cells [2]; 50 μM): protective |
|  | CC[C@H](C)[C@H](NC(=O)OCc1ccccc1)C(=O)N[C@@H](CCC(=O)OC)C(=O)N[C@H](C(=O)N[C@@H](CC(=O)OC)C(=O)CF)[C@@H](C)O [Cbz-Ile-Glu(OMe)-Thr-Asp(OMe)-CH2F] (Cbz-IE(OMe)TD(OMe)-CH2F) | only marginally effective | only marginally effective | inhibited PARP cleavage completely |  |
|  | COC(=O)C[C@H](NC(=O)[C@H](C)NC(=O)[C@@H](NC(=O)OCc1ccccc1)C(C)C)C(=O)CF [Cbz-Val-Ala-Asp(OMe)-CH2F] (Cbz-Val-Ala-Asp(OMe)-CH2F) | only marginally effective | effective inhibitors | effective inhibitors | cytoprotection of HeLa cells from TNF-α/CHX at low doses (HeLa cells [3]; concentration range 0.05 μM to 1 μM): no cytoprotection |
|  | COC(=O)CC[C@H](NC(=O)[C@H](CC(=O)OC)NC(=O)OCc1ccccc1)C(=O)N[C@H](C(=O)N[C@@H](CC(=O)OC)C(=O)CF)C(C)C [Z-DEVD-fmk] |  |  |  | cytoprotection against TNF-α-induced cell death (HeLa cells [1]): very ineffective |
| 770 nM | O=C(O)CC(NC(=O)C(Cc1cnc[nH]1)NC(=O)OCc1ccccc1)C(=O)CF [Z-L-His-Asp-fmk, Z-His-Asp-fmk] (Cbz-His-Asp-CH2F; configuration not given here) |  |  |  |  |
| 410 nM | O=C(O)C[C@H](NC(=O)[C@@H]1CCCN1C(=O)OCc1ccccc1)C(=O)CF [Z-L-Pro-Asp-fmk, Z-Pro-Asp-fmk] (Cbz-Pro-Asp-CH2F) |  |  |  |  |
| 660 nM | O=C(O)C[C@H](NC(=O)[C@H](Cc1ccc(O)cc1)NC(=O)OCc1ccccc1)C(=O)CF [Z-L-Tyr-Asp-fmk, Z-Tyr-Asp-fmk] (Cbz-Tyr-Asp-CH2F) |  |  |  |  |
| 1300 nM | CC(C)[C@@H](C(=O)N[C@@H](CC(=O)O)C(=O)CF)N(C)C(=O)OCc1ccccc1 [Z-N-Me-L-Val-Asp-fmk, Z-N-Me-Val-Asp-fmk] |  |  |  |  |
| 3500 nM | Cbz-Ala-Asp-CH2F [Z- -Ala-Asp-fmk] |  |  |  |  |
